Source: ChEMBL document CHEMBL2094269, “WEHI/Eskitis Trypanosoma b. brucei screening data”
pIC50: −log10 of the molar value.

Experiments:
[1] = tested on: Trypanosoma brucei brucei; assay: microbe, parasite or virus in culture; assay type: functional, organism-based, STIB 795
Description: DNDI: Inhibition of Human African Trypanosomiasis (HAT), STIB 795, in vitro

[2] = DNDI: Cytotoxicity against human MRC-5 lung fibroblast cells.; details: IC50

Row | SMILES | pIC50 ([1]; Trypanosoma brucei, STIB 795) | pIC50 [2] | pIC50 [1]
1 | O=C(O)c1ccc(NNc2c3ccccc3nc3ccccc23)cc1 | 5.99 | < 4.38 | 
2 | CSC(=S)N/N=C(\C)c1ccncn1 | 5.30 | < 5.38 | 
3 | CN(CCO)CC(O)Cn1c2ccc(Cl)cc2c2cc(Cl)ccc21 (configuration not stated) | 5.31 | < 4.68 | 
4 | Cc1ccc(C(=O)C(CO)n2ccnc2)cc1 (configuration not stated) | 5.69 | < 4.38 | 
5 | CC1CCC(C(C)C)C(OCC(O)CN2C(C)CCCC2C)C1 (configuration not stated) | 5.45 | < 4.68 | 
6 | Nc1ccc(Nc2coc3ccccc23)cc1 | 5.43 | < 4.68 | 
7 | C/C(=N\NC(=O)c1ccc(Cl)c(Cl)c1)c1ccccn1 | 5.29 | < 4.38 | 
8 | Cn1ccc(/C=C2/CCC/C(=C\c3ccn(C)n3)C2=O)n1 | 5.25 | < 4.68 | 
9 | CC(C)(C)C(N)CCc1ccc(Cl)cc1Cl (configuration not stated) | 5.26 | < 4.38 | 
10 | COC(=O)c1ccc2c(c1)C(C)(C)C(/C=C/c1c(C)[nH]c3ccccc13)=[N+]2C | 5.53 | < 5.38 | 
11 | Cc1ccc(C(=O)ON=C(/C=C/c2ccccc2)/C=C/c2ccccc2)cc1 | 5.78 | < 4.38 | 
12 | Oc1nncc(N/N=C/c2ccccn2)n1 | 5.25 | < 4.68 | 
13 | Cc1ccc(O)c(/N=N/c2nnc[nH]2)c1 | 6.39 | < 4.98 | 
14 | O=C(N/N=C/c1c(O)ccc2ccccc12)c1cc[nH]n1 | 5.57 | < 4.68 | 
15 | N=C(N)N/N=C(\c1ccc(Cl)cc1)c1ccc(Cl)s1 | ≥ 5.61 | < 5.38 | 
16 | CCN1/C(=C/c2cccc[n+]2C)C=Cc2cc(C)ccc21 | 6.04 | < 4.68 | 
17 | C[N+](C)(C)c1nc(N2CCOCC2)nc(N(c2ccccc2)c2ccccc2)n1 | 5.60 | < 4.38 | 
18 | COCc1cc(CN2CCN(c3ccccc3OC)CC2)c(O)c2ncccc12 | 5.64 | 5.80 | 
19 | CCn1nc(/C=C/c2ccccc2)[n+]([O-])c2c(=O)n(C)c(=O)nc1-2 | 5.44 | < 4.68 | 
20 | CN(C)CCCNCCCc1ccc(C(C)(C)C)cc1 | 7.10 | 5.10 | 
21 | CC[n+]1c(/C=C/c2ccc(N(C)C)cc2)sc2ccc(C(=O)OC)cc21 | 6.88 | < 4.68 | 
22 | S=c1c(Cl)c(Cl)cnn1-c1ccccc1 | 5.21 | < 4.68 | 
23 | Cc1ccc([N+]2=C3SCCCN3C(O)(c3ccc(Cl)cc3Cl)C2)cc1 (configuration not stated) | 5.28 | < 5.38 | 
24 | CC1CCc2nc(SC3CC(=O)C4OCC3O4)nc(C(F)(F)F)c2C1 (configuration not stated) | 5.58 | < 4.68 | 
25 | O=C(Cc1cc(O)[nH]n1)N/N=C/C=C/c1ccccc1 | 5.27 | < 4.38 | 

Row | SMILES | pIC50 ([1]; Trypanosoma brucei, STIB 795) | pIC50 [2] | pIC50 [1]
26 | CC(=O)C(C(C)=O)C1=CC(=O)C(=O)c2ccccc21 | 5.15 | < 4.68 | 
27 | Cc1ccc(/N=N/c2ccc(O)c3ncccc23)cc1C | 5.31 | < 4.68 | 
28 | COc1cccc2c(N)c3c(cnn3C)nc12 | 5.92 | < 5.38 | 
29 | COc1ccc(CC(C)N)c(Sc2ccccc2)c1 (configuration not stated) | 5.27 | < 4.38 | 
30 | CCCC(=O)NC(c1ccccc1Cl)c1cc(Cl)c2cccnc2c1O (configuration not stated) | 5.80 | < 4.68 | 
31 | Oc1c(CN2CCCCC2)ccc2cccnc12 | 5.42 | < 5.38 | 
32 | COc1ccc(-n2nc(N3CCCC(C(=O)NC4CCCC4)C3)ccc2=O)cc1 (configuration not stated) | 5.64 | < 4.38 | 
33 | COc1ccc(C2=NNc3cccc4c(OC)ccc2c34)cc1OC | 5.25 | < 4.38 | 5.27
34 | CC[n+]1c(/C=C2\SC=C(c3ccccc3)N2C)ccc2cc(C)ccc21 | 6.38 | < 4.98 | 
35 | CC(CON1C(N)=NC(N)=NC1(C)C)Cc1cccc(Br)c1 (configuration not stated) | ≥ 5.44 | < 5.38 | 
36 | CCCN(CCC)C(=O)Cn1ccc(=N)c2ccccc21 | 5.45 | < 4.38 | 
37 | N=C(NOC(=O)C12CC3CC(CC(C3)C1)C2)c1ccccc1 | 6.49 | < 4.68 | 
38 | O=C(/C=C/c1ccccc1Cl)Nc1ccc2ccccc2c1 | 5.21 | < 4.38 | 
39 | CCCCCOc1ccc(NC(=O)C(=O)NC2CC(C)(C)NC(C)(C)C2)cc1 | 5.31 | < 4.38 | 
40 | O=C1NC(=S)NC(=O)C1=Cc1c2ccccc2cc2ccccc12 | 5.28 | < 4.38 | 
41 | CC(C)c1ccc(OCc2ccc(C(=O)NCCN(C)C)cc2)cc1 | 5.23 | < 4.68 | 
42 | Cc1cc(Cl)n(C)c2nc3ccccc3c1-2 | 6.20 | < 4.98 | 
43 | Cc1ccc(C(OCC(C)(C)C[N+](C)(C)C)c2ccccc2)cc1 (configuration not stated) | 5.17 | < 4.38 | 
44 | N=c1n(CCOc2ccccc2)c2ccccc2n1Cc1ccc(Cl)cc1 | 5.18 | < 4.38 | 
45 | COc1ccc(-c2nc(Nc3ccc(F)cc3F)c3ccccc3n2)cc1OC | 5.15 | < 4.38 | 
46 | CC(C)/C(N)=N/OC(=O)c1ccc(I)cc1 | 6.09 | < 4.38 | 
47 | O=C(NC(c1ccc2c(c1)OCO2)c1ccc2cccnc2c1O)c1ccccc1 (configuration not stated) | 5.31 | < 5.38 | 
48 | Oc1c(Cl)cc(CN2CCOCC2)c2cccnc12 | 6.02 | < 4.68 | 5.95
49 | N#C/C(=C\c1cccn1-c1ccc(S(N)(=O)=O)cc1)c1nc2ccccc2[nH]1 | 5.30 | < 4.38 | 
50 | Cn1c(Cl)cnc1C1CC(=O)c2cc(Cl)ccc2O1 (configuration not stated) | 6.09 | < 4.38 | 

Row | SMILES | pIC50 ([1]; Trypanosoma brucei, STIB 795) | pIC50 [2] | pIC50 [1]
51 | CN(C)CCCNc1nc(-c2ccc(Cl)cc2)nc2ccccc12 | 5.43 | < 4.68 | 
52 | CCN(CC)CCNc1cc(C)nc2c1C(=O)C(=O)C=C2N1CCCCC1 | 5.39 | 5.20 | 
53 | COc1ccc(-c2cc3ccccc3n2CC(O)CNCCO)cc1 (configuration not stated) | 5.29 | < 4.68 | 
54 | O=C1c2cccc3c(N4CCOCC4)ccc(c23)C(=O)N1O | 5.10 | < 4.38 | 
55 | CC(=O)NC1=C(Br)C(=O)c2cccc(NC(C)=O)c2C1=O | 5.94 | 5.13 | 
56 | O=C(N/N=C\c1cc(Cl)ccc1O)c1cccs1 | 4.96 | < 4.38 | 
57 | COc1ccccc1N1CCN(Cc2cc(Cl)c3cccnc3c2O)CC1 | 5.22 | < 5.38 | < 4.98
58 | CCN1/C(=C\C=C/C2C=Cc3ccccc3N2CC)C=Cc2ccccc21 (configuration not stated) | 6.39 | 5.29 | 
59 | COc1ccc(C(=N)NOC(=O)c2cccs2)cc1 | 5.74 | < 4.38 | 
60 | Oc1ccc(Cn2cnc3ccccc32)c2cccnc12 | 5.81 | < 5.38 | 
61 | N#Cc1ccccc1N=NNc1ccccc1C#N | 5.29 | < 4.38 | 
62 | Brc1ccc(-c2nc(N3CCNCC3)c3ccccc3n2)cc1 | 5.55 | < 4.98 | 
63 | O=C(N/N=C/c1sc2ccccc2c1O)c1ccc(O)cc1O | 5.35 | < 5.38 | 
64 | CC(=O)NC(c1ccccc1C)c1ccc2cccnc2c1O (configuration not stated) | 6.18 | < 5.98 | 
65 | O=C(c1ccccc1)c1ccc(O)c(O)c1 | 5.92 | < 4.38 | 
66 | COc1ccc(Nc2nc3ccccc3c(=O)o2)cc1 | 6.36 | < 4.68 | 
67 | Clc1ccc(C(OCC2CCCCN2)c2ccc(Cl)cc2)cc1 (configuration not stated) | 5.56 | < 5.38 | 
68 | CC(C)(C)C(=O)N1N=C(c2ccc(NS(C)(=O)=O)cc2)CC1c1ccco1 (configuration not stated) | 5.25 | < 4.68 | 
69 | O=C1C=C/C(=N\Nc2ccc3c(c2)OCCO3)c2cccnc21 | 5.84 | < 4.68 | 
70 | CCCCNCc1[nH]c2ccccc2c1Cl | 5.51 | < 4.68 | 
71 | O=C(NCCc1csc(-c2ccc(F)cc2)n1)c1ccc(Br)o1 | 5.33 | < 4.38 | 
72 | Clc1cc2c(c3ncccc13)OCN(CC1CCCO1)C2 (configuration not stated) | 5.17 | 5.17 | 
73 | O=C(CS(=O)(=O)c1ccc(F)cc1)Nc1nc(-c2ccccn2)cs1 | 6.10 | < 4.98 | 
74 | O=C(Nc1ccc(Cl)cc1)O/N=C(/c1ccc(Cl)cc1)N1CCOCC1 | 5.37 | < 4.38 | 
75 | CCN1C(C)=C(C)S/C1=C\c1ccc2cc(C)ccc2[n+]1C | 6.50 | < 5.38 | 

Row | SMILES | pIC50 ([1]; Trypanosoma brucei, STIB 795) | pIC50 [2] | pIC50 [1]
76 | c1ccc2c(c1)CC1CNCc3cccc(c31)S2 (configuration not stated) | 5.25 | < 4.38 | 
77 | CNCCCC1Sc2ccccc2C(C)c2ccccc21 (configuration not stated) | 5.31 | < 4.68 | 
78 | Cc1ccc2c(c1)C(=O)C(CN1CCOCC1)CO2 (configuration not stated) | 5.66 | < 4.68 | 
79 | Cc1nc2sccn2c1C(=O)N/N=C/c1c(O)ccc2ccccc12 | 5.82 | < 5.38 | 
80 | COc1ccccc1-c1nc(SCC(=O)c2ccc(O)c(O)c2)n[nH]1 | 5.57 | < 4.38 | 
81 | Cc1cc2nc(N/C(N)=N/C(=O)NC3CCCCC3)nc(C)c2cc1C | 5.27 | < 4.38 | 
82 | C1=C(N2CCNCC2)c2ccccc2Sc2ccccc21 | 5.50 | < 4.68 | 
83 | NCCCCNCCOC(c1ccc(F)cc1)c1ccc(F)cc1 | 5.59 | < 4.68 | 
84 | Cc1cc(OCC(O)CNC(C)c2ccccc2)cc(C)c1Cl (configuration not stated) | 5.33 | < 4.38 | 
85 | Cc1ccccc1-n1sc2ccccc2c1=O | 5.70 | < 4.68 | 
86 | Cc1cc(NC2CCCCC2)nc(NCc2ccccc2)n1 | 5.35 | < 4.38 | 
87 | CCOC(=O)/C=C\n1nnc2ccccc21 | 6.30 | < 4.38 | 
88 | CCOC(=O)c1ccc(CCCCCON2C(N)=NC(N)=NC2(C)C)cc1 | 5.98 | < 5.98 | 
89 | Nc1ccsc1/C=C/c1cccs1 | 5.30 | < 4.38 | 
90 | CC(=O)CC1(O)C(=O)Nc2ccc(I)cc21 (configuration not stated) | 5.50 | < 4.38 | 
91 | O=c1c(Oc2ccccc2Br)coc2cc(O)ccc12 | 5.35 | < 4.38 | 
92 | COc1cc2nc(N(C)C)nc(N)c2cc1OC | 5.28 | < 4.68 | 
93 | CC(C)=C1C2CCC1C1C(=O)N(NC(=O)C(C)Oc3ccc(C)c(C)c3)C(=O)C21 (configuration not stated) | 5.27 | < 4.38 | 
94 | CCn1c2cccc(=O)c-2nc2ccccc21 | > 7.40 | < 4.68 | 
95 | c1ccc(Sc2cccc3ccccc23)c(CNC2=NCCN2)c1 | 6.37 | < 4.68 | 
96 | Clc1ccnc2c1ccc1nn[nH]c12 | 5.36 | < 4.38 | 
97 | Cc1[nH]c2ccc(OC(F)(F)F)cc2c1CCNCC1CC=CCC1 (configuration not stated) | 5.54 | 5.11 | 
